Measured values reported in US6500838B2, “Treatment of stereotypic, self-injurious and compulsive behaviors in man and animals using antagonists of NMDA receptors” (The Trustees of Tufts College, priority 1998, dated 2002).

What was measured:
BALB/c male mice = test: Mouse model for pruritus: scratching after compound 48/80; type: in vivo
Procedure: The animals used were BALB/c male mice, weighing 27-33 g. One mouse was used per compound tested, except for two control mice receiving saline; two different mice were tested with (+) methadone, each with a different dose. Compound 48/80 (Kuraishi, Y. et al., European Journal of Pharmacology 275:229-233, 1995), 0.5 mg/ml in saline, was injected subcutaneously in a volume of 0.1 ml, between the shoulder blades of the mouse. Test compounds, dissolved in saline, were injected intraperitoneally in a volume of 0.1 ml per 10 g, either 10 minutes before or 30 minutes after injection of compound 48/80. The cumulative number of scratches with a hind leg were recorded at 10 minute intervals for 60 minutes following the injection of compound 48/80. See Tables 2 and 3, as well as FIGS. 4, 5A and 5B, showing the effectiveness of the compounds tested: naltrexone, dextromethorphan, (+) methadone, haloperidol, and (+) naloxone.

crib-biting horses = test: Rate of crib-biting in horses after drug treatment; type: in vivo, horse
Procedure: Horses were admitted to the Large Animal Hospital of Tufts University School of Veterinary Medicine or were tested in their home barn. Cribbing straps and food were removed prior to testing. Control rates of crib-biting were observed and recorded for 5 minute intervals for one hour or more after an intravenous injection of 0.15 M saline. Test drugs were administered orally (by gavage) or by injection into the jugular vein. Solutions were made up with physiological saline and sterilized by filtration through a 0.2 micron filter (Millipore).
For the experimental data shown in FIG. 1, after establishment of a stable control rate of approximately 10 crib-bites per minute, 50 mg of D-methadone-HCl in 25 ml saline was injected i.v. In FIG. 1, the cumulative number of crib-bites was plotted against time as was the rate per 5 minute interval (Shuster, L. and N. H. Dodman, pp. 185-202, In Psychopharmacology of Animal Behavior Disorders, (N. H. Dodman and L. Shuster, eds.), Blackwell Scientific, Malden, Mass., 1998). […] The control rate then resumed during the next 80 minutes of observation. Horses were observed continuously during scoring for side effects that might be attributed to the treatment. These included changes in posture, disposition and motor activity. See also Table 1.

stall-walking horse = test: Stall-walking (turning) in a horse, circuits around the stall; type: in vivo; conditions: horse Full Circle (turning), 1.0 mg/kg, iv.
Procedure: Dextromethorphan-HBr, 1.0 mg/kg i.v., was injected after 60 minutes of control observations, to test its effect on a stall-walking horse. When measuring “stall walking” locomotor activity, each circuit around the stall was scored as one rotation. Cumulative rotations per 5 minute interval were plotted against time to establish the rate of circling. The results of the experiment are plotted in FIG. 2. See also Table 1.

[1] = 10 mg/kg i.p. 10 minutes before 48/80, 10 minutes after 48/80
[2] = 10 mg/kg i.p. 10 minutes before 48/80, 20 minutes after 48/80
[3] = 10 mg/kg i.p. 10 minutes before 48/80, 30 minutes after 48/80
[4] = 10 mg/kg i.p. 10 minutes before 48/80, 40 minutes after 48/80
[5] = 10 mg/kg i.p. 10 minutes before 48/80, 50 minutes after 48/80
[6] = 10 mg/kg i.p. 10 minutes before 48/80, 60 minutes after 48/80
[7] = 20 mg/kg i.p. 30 minutes after 48/80, time 10 minutes (before dosing)
[8] = 20 mg/kg i.p. 30 minutes after 48/80, time 20 minutes (before dosing)
[9] = 20 mg/kg i.p. 30 minutes after 48/80, time 30 minutes
[10] = 20 mg/kg i.p. 30 minutes after 48/80, time 40 minutes
[11] = 20 mg/kg i.p. 30 minutes after 48/80, time 50 minutes
[12] = 20 mg/kg i.p. 30 minutes after 48/80, time 60 minutes
[13] = horse CB, 0.2 mg/kg, iv., before treatment 8.2
[14] = horse CB, 0.2 mg/kg, iv., before treatment 8.8

O=C1CC[C@@]2(O)[C@H]3Cc4ccc(O)c5c4[C@@]2(CCN3CC2CC2)[C@H]1O5 [Naltrexone]
Cumulative Scratches (BALB/c male mice; [1]): 0
Cumulative Scratches (BALB/c male mice; [2]): 0
Cumulative Scratches (BALB/c male mice; [3]): 0
Cumulative Scratches (BALB/c male mice; [4]): 1
Cumulative Scratches (BALB/c male mice; [5]): 61
Cumulative Scratches (BALB/c male mice; [6]): 73

C=CCN1CC[C@]23c4c5ccc(O)c4O[C@H]2C(=O)CC[C@]3(O)[C@H]1C5 [(+) naloxone]
Duration of Effect (crib-biting horses; horse CB, 0.12 mg/kg, iv.): 60 min
lag before effect (crib-biting horses; horse CB, 0.12 mg/kg, iv.): (30 min lag)
Crib-biting Frequency number per minute After treatment (crib-biting horses; horse CB, 0.12 mg/kg, iv., before treatment 10): 6.6 number per minute
Duration of Effect (crib-biting horses; horse CB, 0.18 mg/kg, i.v.): 60 min
lag before effect (crib-biting horses; horse CB, 0.18 mg/kg, i.v.): (no lag)
Crib-biting Frequency number per minute After treatment (crib-biting horses; horse CB, 0.18 mg/kg, i.v., before treatment 9.2): 0.8 number per minute
Cumulative Scratches (BALB/c male mice; [7]): 4
Cumulative Scratches (BALB/c male mice; [8]): 48
Cumulative Scratches (BALB/c male mice; [9]): 105
Cumulative Scratches (BALB/c male mice; [10]): 112
Cumulative Scratches (BALB/c male mice; [11]): 146
Cumulative Scratches (BALB/c male mice; [12]): 175

(−) naloxone
Duration of Effect (crib-biting horses; horse CB, .04 mg/kg, i.v.): 65 min
lag before effect (crib-biting horses; horse CB, .04 mg/kg, i.v.): (10 min lag)
Crib-biting Frequency number per minute After treatment (crib-biting horses; horse CB, .04 mg/kg, i.v., before treatment 12): 0.1 number per minute

CNC1(c2ccccc2Cl)CCCCC1=O (stereo not drawn) [ketamine]
Crib-biting Frequency number per minute After treatment (crib-biting horses; [13]): 1.3 number per minute
Duration of Effect (crib-biting horses; [13]): 50 min
lag before effect (crib-biting horses; [13]): (no lag)

CCC(=O)C(C[C@H](C)N(C)C)(c1ccccc1)c1ccccc1 [(+) Methadone]
rate of crib-bites per 5 minute interval (crib-biting horses; 50 mg in 25 ml saline i.v., control rate approximately 10 crib-bites per minute, resumed during the next 80 minutes): decreased between the second and the fifth 5-minute interval following injection
Crib-biting Frequency number per minute After treatment (crib-biting horses; [14]): 2.6 number per minute
Duration of Effect (crib-biting horses; [14]): 20 min
lag before effect (crib-biting horses; [14]): (10 min lag)
Duration of Effect (crib-biting horses; horse CB, .01 mg/kg, iv.): 10 min
Crib-biting Frequency number per minute After treatment (crib-biting horses; horse CB, .01 mg/kg, iv., before treatment 8.2): 5.5 number per minute
Cumulative Scratches (BALB/c male mice; 5 mg/kg i.p. 30 minutes after 48/80, time 10 minutes (before dosing)): 0
Cumulative Scratches (BALB/c male mice; 5 mg/kg i.p. 30 minutes after 48/80, time 20 minutes (before dosing)): 56
Cumulative Scratches (BALB/c male mice; 5 mg/kg i.p. 30 minutes after 48/80, time 30 minutes): 114
Cumulative Scratches (BALB/c male mice; 5 mg/kg i.p. 30 minutes after 48/80, time 40 minutes): 145
Cumulative Scratches (BALB/c male mice; 5 mg/kg i.p. 30 minutes after 48/80, time 50 minutes): 210
Cumulative Scratches (BALB/c male mice; 5 mg/kg i.p. 30 minutes after 48/80, time 60 minutes): 267
Cumulative Scratches (BALB/c male mice; [1]): 0
Cumulative Scratches (BALB/c male mice; [2]): 0
Cumulative Scratches (BALB/c male mice; [3]): 0
Cumulative Scratches (BALB/c male mice; [4]): 0
Cumulative Scratches (BALB/c male mice; [5]): 0
Cumulative Scratches (BALB/c male mice; [6]): 0
Cumulative Scratches (BALB/c male mice; 10 mg/kg i.p. 30 minutes after 48/80, time 10 minutes (before dosing)): 6
Cumulative Scratches (BALB/c male mice; 10 mg/kg i.p. 30 minutes after 48/80, time 20 minutes (before dosing)): 38
Cumulative Scratches (BALB/c male mice; 10 mg/kg i.p. 30 minutes after 48/80, time 30 minutes): 106
Cumulative Scratches (BALB/c male mice; 10 mg/kg i.p. 30 minutes after 48/80, time 40 minutes): 107
Cumulative Scratches (BALB/c male mice; 10 mg/kg i.p. 30 minutes after 48/80, time 50 minutes): 107
Cumulative Scratches (BALB/c male mice; 10 mg/kg i.p. 30 minutes after 48/80, time 60 minutes): 107

O=C(CCCN1CCC(O)(c2ccc(Cl)cc2)CC1)c1ccc(F)cc1 [Haloperidol]
Cumulative Scratches (BALB/c male mice; 2.0 mg/kg i.p. 30 minutes after 48/80, time 10 minutes (before dosing)): 2
Cumulative Scratches (BALB/c male mice; 2.0 mg/kg i.p. 30 minutes after 48/80, time 20 minutes (before dosing)): 87
Cumulative Scratches (BALB/c male mice; 2.0 mg/kg i.p. 30 minutes after 48/80, time 30 minutes): 108
Cumulative Scratches (BALB/c male mice; 2.0 mg/kg i.p. 30 minutes after 48/80, time 40 minutes): 137
Cumulative Scratches (BALB/c male mice; 2.0 mg/kg i.p. 30 minutes after 48/80, time 50 minutes): 137
Cumulative Scratches (BALB/c male mice; 2.0 mg/kg i.p. 30 minutes after 48/80, time 60 minutes): 142

COc1ccc2c(c1)[C@]13CCCC[C@@H]1[C@H](C2)N(C)CC3 [Dextromethorphan]
Duration of Effect (crib-biting horses; horse CB, 1.0 mg/kg, i.v.): 35 min
lag before effect (crib-biting horses; horse CB, 1.0 mg/kg, i.v.): (no lag)
Crib-biting Frequency number per minute After treatment (crib-biting horses; horse CB, 1.0 mg/kg, i.v., before treatment 7.6): 0.3 number per minute
Duration of Effect (crib-biting horses; horse CB, 1.0 mg/kg, p.o.): 90 min
lag before effect (crib-biting horses; horse CB, 1.0 mg/kg, p.o.): (35 min lag)
Crib-biting Frequency number per minute After treatment (crib-biting horses; horse CB, 1.0 mg/kg, p.o., before treatment 8): 1.7 number per minute
Duration of Effect (crib-biting horses; horse Frito, 3.2 mg/kg p.o.): 100 min
lag before effect (crib-biting horses; horse Frito, 3.2 mg/kg p.o.): (30 min lag)
Crib-biting Frequency number per minute After treatment (crib-biting horses; horse Frito, 3.2 mg/kg p.o., before treatment 3.5): 1.8 number per minute
Duration of Effect (stall-walking horse): 45 min
lag before effect (stall-walking horse): (no lag)
turns per min. After treatment (stall-walking horse; before treatment 3.5 turns per min.): .3 turns turns per min.
Cumulative Scratches (BALB/c male mice; [1]): 1
Cumulative Scratches (BALB/c male mice; [2]): 57
Cumulative Scratches (BALB/c male mice; [3]): 105
Cumulative Scratches (BALB/c male mice; [4]): 157
Cumulative Scratches (BALB/c male mice; [5]): 182
Cumulative Scratches (BALB/c male mice; [6]): 192
Cumulative Scratches (BALB/c male mice; [7]): 47
Cumulative Scratches (BALB/c male mice; [8]): 125
Cumulative Scratches (BALB/c male mice; [9]): 158
Cumulative Scratches (BALB/c male mice; [10]): 171
Cumulative Scratches (BALB/c male mice; [11]): 178
Cumulative Scratches (BALB/c male mice; [12]): 185
